Our source for the IC50 values is ChEMBL document CHEMBL1139078, “ortho-Substituted azoles as selective and dual inhibitors of VEGF receptors 1 and 2” (Bioorg Med Chem Lett, 2007).

One may read the IC50 as the concentration at which inhibition is half-maximal. Low values mean greater potency, high ones weaker potency.

The target of experiment [1] is T1, Vascular endothelial growth factor receptor 2 (Homo sapiens, UniProt P35968). As to the kind of experiment: Inhibition of VEGFR2 by cell-based assay. Type of experiment: functional.
Experiment [2] has as its target T1, Vascular endothelial growth factor receptor 2. The experiment is described as follows: Inhibition of VEGFR2 by HTRF assay.
The target of experiment [3] is Vascular endothelial growth factor receptor 1 (Homo sapiens, UniProt P17948). As to the kind of experiment: Inhibition of VEGFR1 by HTRF assay. Background: TR-FRET usually uses a lanthanide donor and a delayed reading to cut background.
Sequence of Vascular endothelial growth factor receptor 1 (P17948 whole entry, looked up): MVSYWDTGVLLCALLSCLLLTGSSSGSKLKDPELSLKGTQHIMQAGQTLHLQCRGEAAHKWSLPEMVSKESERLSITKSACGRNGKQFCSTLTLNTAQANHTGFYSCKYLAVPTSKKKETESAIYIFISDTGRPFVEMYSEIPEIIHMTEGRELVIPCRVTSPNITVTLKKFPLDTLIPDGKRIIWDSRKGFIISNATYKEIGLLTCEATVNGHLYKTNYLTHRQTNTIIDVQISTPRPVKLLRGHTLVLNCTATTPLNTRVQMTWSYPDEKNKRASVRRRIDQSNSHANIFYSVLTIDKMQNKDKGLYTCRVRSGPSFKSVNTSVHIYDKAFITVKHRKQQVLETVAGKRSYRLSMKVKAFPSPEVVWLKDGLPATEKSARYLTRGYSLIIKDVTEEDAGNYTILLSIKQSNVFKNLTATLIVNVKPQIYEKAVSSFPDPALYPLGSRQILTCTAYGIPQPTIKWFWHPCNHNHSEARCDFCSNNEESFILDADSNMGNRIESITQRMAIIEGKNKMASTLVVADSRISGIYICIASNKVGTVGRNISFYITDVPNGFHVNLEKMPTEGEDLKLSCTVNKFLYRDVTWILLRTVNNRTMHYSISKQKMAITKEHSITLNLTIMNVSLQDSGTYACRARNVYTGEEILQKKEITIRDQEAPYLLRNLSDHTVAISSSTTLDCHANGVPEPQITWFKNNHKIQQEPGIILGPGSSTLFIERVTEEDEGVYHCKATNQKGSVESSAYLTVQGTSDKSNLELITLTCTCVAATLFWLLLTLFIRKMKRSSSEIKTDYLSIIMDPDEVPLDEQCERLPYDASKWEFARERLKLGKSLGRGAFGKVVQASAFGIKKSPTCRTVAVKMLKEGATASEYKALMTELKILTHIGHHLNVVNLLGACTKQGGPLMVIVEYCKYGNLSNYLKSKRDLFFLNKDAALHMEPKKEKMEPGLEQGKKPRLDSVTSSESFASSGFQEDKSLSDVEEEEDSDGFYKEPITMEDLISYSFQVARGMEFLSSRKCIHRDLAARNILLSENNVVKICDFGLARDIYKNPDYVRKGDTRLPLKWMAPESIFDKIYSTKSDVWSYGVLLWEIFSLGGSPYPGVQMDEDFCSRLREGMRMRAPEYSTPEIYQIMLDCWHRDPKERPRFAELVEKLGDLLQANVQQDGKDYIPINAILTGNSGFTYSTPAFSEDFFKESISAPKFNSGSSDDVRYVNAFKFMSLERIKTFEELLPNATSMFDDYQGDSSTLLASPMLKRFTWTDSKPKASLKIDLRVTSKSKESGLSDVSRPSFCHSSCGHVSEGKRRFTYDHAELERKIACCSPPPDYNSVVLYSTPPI

T1 sequence (P35968 whole entry): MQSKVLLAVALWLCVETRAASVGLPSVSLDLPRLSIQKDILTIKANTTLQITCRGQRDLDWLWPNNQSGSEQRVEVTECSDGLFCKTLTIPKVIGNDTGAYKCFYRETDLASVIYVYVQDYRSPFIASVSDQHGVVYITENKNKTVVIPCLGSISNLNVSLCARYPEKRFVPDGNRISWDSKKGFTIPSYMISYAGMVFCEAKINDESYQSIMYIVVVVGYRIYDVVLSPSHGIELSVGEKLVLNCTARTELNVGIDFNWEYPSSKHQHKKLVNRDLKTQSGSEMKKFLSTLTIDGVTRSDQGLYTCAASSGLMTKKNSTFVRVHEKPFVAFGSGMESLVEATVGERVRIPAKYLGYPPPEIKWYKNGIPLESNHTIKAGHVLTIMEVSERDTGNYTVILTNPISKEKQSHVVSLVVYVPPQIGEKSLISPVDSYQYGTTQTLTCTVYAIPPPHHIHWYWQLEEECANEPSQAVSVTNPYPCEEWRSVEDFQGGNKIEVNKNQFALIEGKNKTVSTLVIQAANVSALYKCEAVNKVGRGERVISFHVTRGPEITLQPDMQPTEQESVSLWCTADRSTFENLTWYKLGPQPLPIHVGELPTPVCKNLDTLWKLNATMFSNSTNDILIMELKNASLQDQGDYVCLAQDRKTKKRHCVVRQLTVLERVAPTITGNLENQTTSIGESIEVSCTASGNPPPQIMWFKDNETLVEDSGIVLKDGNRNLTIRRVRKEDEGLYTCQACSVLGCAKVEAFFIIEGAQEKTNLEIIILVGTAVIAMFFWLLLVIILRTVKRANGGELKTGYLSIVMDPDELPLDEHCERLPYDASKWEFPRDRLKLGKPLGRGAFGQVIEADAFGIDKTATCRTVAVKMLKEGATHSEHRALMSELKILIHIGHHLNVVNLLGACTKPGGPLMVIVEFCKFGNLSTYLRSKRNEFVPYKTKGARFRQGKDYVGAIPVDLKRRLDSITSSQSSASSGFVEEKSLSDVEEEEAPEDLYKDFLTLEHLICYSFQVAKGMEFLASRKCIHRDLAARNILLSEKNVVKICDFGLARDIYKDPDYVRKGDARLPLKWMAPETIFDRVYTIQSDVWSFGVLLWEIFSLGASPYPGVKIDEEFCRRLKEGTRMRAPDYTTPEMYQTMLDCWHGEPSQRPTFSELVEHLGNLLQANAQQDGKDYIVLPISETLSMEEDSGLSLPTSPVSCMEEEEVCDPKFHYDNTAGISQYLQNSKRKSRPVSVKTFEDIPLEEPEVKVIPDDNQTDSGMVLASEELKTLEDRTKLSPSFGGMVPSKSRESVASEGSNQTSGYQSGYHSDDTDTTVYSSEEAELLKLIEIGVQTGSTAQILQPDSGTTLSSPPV

`Cn1cnc(NCc2cccnc2)c1C(=O)Nc1ccc(C(F)(F)F)cc1`: the IC50 in experiment [1], in experiment [2] and in experiment [3] was more than 10000 nM each time.
On to `Cn1cnc(NCc2ccncc2)c1C(=O)Nc1cc(C(F)(F)F)cc(C(F)(F)F)c1`, for which the IC50 in experiment [1] was 150 nM; in experiment [2], 740 nM; in experiment [3], 1060 nM.
For `Cc1ccc(NC(=O)c2c(NCc3ccncc3)ncn2C)c(F)c1` the same measures were 1250 nM, 840 nM and 1350 nM.
As to `Cc1noc(NCc2ccncc2)c1C(=O)Nc1ccc(C(F)(F)F)c(C(F)(F)F)c1`, the values for the IC50 in experiment [1], in experiment [2] and in experiment [3] were more than 10000 nM, 4230 nM and more than 10000 nM, respectively.
With `COc1ccc(NC(=O)c2c(C)noc2NCc2ccncc2)cc1OC`, the IC50 in experiment [1] was more than 10000 nM; in experiment [2], 1190 nM; in experiment [3] it was 3350 nM.
As to `Cc1ccc(NC(=O)c2c(NCc3ccncc3)cnn2C)cc1C(F)(F)F`, the IC50 worked out at 102 nM in experiment [1], 660 nM in experiment [2] and 930 nM in experiment [3].
The corresponding values for `Cn1cnc(NCc2ccncc2)c1C(=O)NCc1ccc2c(c1)OCO2` are 740 nM, 650 nM and 1120 nM.
On to `Cn1ncc(NCc2ccncc2)c1C(=O)Nc1ccc(-c2ccccc2)cc1`, for which the IC50 in experiment [1], in experiment [2] and in experiment [3] was more than 10000 nM each time.
As for `Cn1cnc(NCc2ccncc2)c1C(=O)Nc1ccc2c(c1)CN=N2`, the figures for the IC50 in experiment [1], in experiment [2] and in experiment [3] were more than 10000 nM, 6020 nM and more than 10000 nM, respectively.
On to `Cn1ncc(NCc2ccncc2)c1C(=O)Nc1cc(C(F)(F)F)cc(C(F)(F)F)c1`, for which the IC50 in experiment [1] was determined as 210 nM; in experiment [2], 1120 nM; in experiment [3], 1230 nM.
Consider `Cn1ncc(NCc2ccncc2)c1C(=O)Nc1cccc(C(F)(F)F)c1`, for which the IC50 in experiment [1] was found to be 1340 nM; in experiment [2] it was 750 nM; in experiment [3] it was 1060 nM.
As to `Cn1cnc(NCc2ccncc2)c1C(=O)Nc1ccc(C(F)(F)F)cc1`, the IC50 came to 9600 nM in experiment [1], 1980 nM in experiment [2] and 6000 nM in experiment [3].
Turning to `Cn1cnc(NCc2ccncc2)c1C(=O)Nc1ccc2cn[nH]c2c1`, the IC50 in experiment [1] was more than 10000 nM; in experiment [2], 5730 nM; in experiment [3] it was more than 10000 nM.
Turning to `Cn1cnc(NCc2ccncc2)c1C(=O)Nc1ccc(OC(F)(F)F)cc1`, the results for the IC50 in experiment [1], in experiment [2] and in experiment [3] were 110 nM, 1150 nM and 1430 nM, respectively.
The corresponding values for `Cc1noc(NCc2ccncc2)c1C(=O)Nc1ccc(Oc2ccccc2)cc1` are more than 10000 nM, more than 10000 nM and more than 10000 nM.
The corresponding values for `Cn1cnc(NCc2ccncc2)c1C(=O)Nc1ccc(C(F)(F)F)c(C(F)(F)F)c1` are 110 nM, 580 nM and 690 nM.
As for `Cc1noc(NCc2ccncc2)c1C(=O)Nc1ccc(Cl)c(Cl)c1`, the IC50 in experiment [1] is 930 nM; in experiment [2], 970 nM; in experiment [3], 1250 nM.
As to `Cn1ncc(NCc2ccncc2)c1C(=O)Nc1ccc(Cl)c(C(F)(F)F)c1`, the IC50 is 110 nM in experiment [1], 1130 nM in experiment [2] and 1360 nM in experiment [3].
The corresponding values for `Cn1ncc(NCc2ccncc2)c1C(=O)Nc1cnc2ccccc2c1` are 1140 nM, 280 nM and 520 nM.
Regarding `Cn1cnc(NCc2ccncc2)c1C(=O)Nc1ccc(Cc2ccccc2)cc1`, the results for the IC50 in experiment [1], in experiment [2] and in experiment [3] were more than 10000 nM, 5570 nM and more than 10000 nM, respectively.
In the case of `Cc1noc(NCc2ccncc2)c1C(=O)Nc1ccc(C(F)(F)F)c(Cl)c1`, the IC50 in experiment [1] amounted to 320 nM; in experiment [2], 560 nM; in experiment [3] it was 1110 nM.
For `Cn1cnc(NCc2ccncc2)c1C(=O)Nc1cccc(Cl)c1` the same measures were more than 10000 nM, 2060 nM and 3220 nM.
As for `Cn1ncc(NCc2ccncc2)c1C(=O)Nc1ccc(Cc2ccccc2)cc1`, the IC50 in experiment [1] is more than 10000 nM; in experiment [2], 5570 nM; in experiment [3], more than 10000 nM.
Turning to `Cc1cc(NC(=O)c2c(C)noc2NCc2ccncc2)ccc1C(F)(F)F`, the 50% inhibitory concentration (IC50) in experiment [1] was found to be 590 nM; in experiment [2], 870 nM; in experiment [3] it was 1440 nM.
The corresponding values for `Cc1noc(NCc2ccncc2)c1C(=O)Nc1ccc(-c2ccccc2)cc1` are more than 10000 nM, more than 10000 nM and more than 10000 nM.
The corresponding values for `Cn1ncc(NCc2ccncc2)c1C(=O)Nc1cccc(Cl)c1` are more than 10000 nM, 2060 nM and 3220 nM.
The corresponding values for `Cn1cnc(NCc2ccncc2)c1C(=O)Nc1cccc(OC(F)(F)F)c1` are 350 nM, 760 nM and 1110 nM.
In the case of `Cn1ncc(NCc2ccncc2)c1C(=O)Nc1ccc(Cl)cc1`, the IC50 was 1000 nM in experiment [1], 4580 nM in experiment [2] and more than 10000 nM in experiment [3].
For `Cc1noc(NCc2ccncc2)c1C(=O)Nc1ccc(Cl)cc1` the same measures were more than 10000 nM, more than 10000 nM and more than 10000 nM.
The corresponding values for `Cn1cnc(NCc2ccncc2)c1C(=O)Nc1ccc(-c2ccccc2)cc1` are more than 10000 nM, 3770 nM and more than 10000 nM.
For `Cn1cnc(NCc2cccnc2)c1C(=O)Nc1cccc(C(F)(F)F)c1` the same measures were more than 10000 nM, more than 10000 nM and more than 10000 nM.
Take `Cn1cnc(NCc2ccncc2)c1C(=O)Nc1cccc(C(F)(F)F)c1`: the IC50 stood at 550 nM in experiment [1], 650 nM in experiment [2] and 790 nM in experiment [3].
The corresponding values for `Cn1ncc(NCc2ccncc2)c1C(=O)Nc1ccc(C(F)(F)F)cc1` are 130 nM, 280 nM and 310 nM.
For `Cn1ncc(NCc2ccncc2)c1C(=O)Nc1cccc(OC(F)(F)F)c1`, the IC50 in experiment [1] is 470 nM; in experiment [2], 2060 nM; in experiment [3], 2440 nM.
As for `Cc1noc(NCc2ccncc2)c1C(=O)Nc1ccc(Cc2ccccc2)cc1`, the IC50 in experiment [1] is more than 10000 nM; in experiment [2], 5800 nM; in experiment [3], more than 10000 nM.
For `Cn1ncc(NCc2ccncc2)c1C(=O)Nc1ccc(C(F)(F)F)c(Cl)c1`, the IC50 stood at 79 nM in experiment [1], 210 nM in experiment [2] and 440 nM in experiment [3].
For `Cn1ncc(NCc2ccncc2)c1C(=O)Nc1ccc(C(F)(F)F)c(C(F)(F)F)c1` the same measures were 130 nM, 840 nM and 920 nM.
The corresponding values for `COc1ccc(NC(=O)c2c(NCc3ccncc3)cnn2C)cc1OC` are 91 nM, 350 nM and 510 nM.
As for `Cc1noc(NCc2ccncc2)c1C(=O)Nc1ccc(C(F)(F)F)cc1`, the IC50 was found to be 180 nM in experiment [1], 370 nM in experiment [2] and 560 nM in experiment [3].
Regarding `Cn1ncc(NCc2ccncc2)c1C(=O)Nc1ccc(Oc2ccccc2)cc1`, the IC50 in experiment [1], in experiment [2] and in experiment [3] was more than 10000 nM in each case.
On to `Cc1noc(NCc2ccncc2)c1C(=O)Nc1cccc(C(F)(F)F)c1`, for which the values for the IC50 in experiment [1], in experiment [2] and in experiment [3] were 2270 nM, 1560 nM and 1690 nM, respectively.
